{
  "source": "patent US8895019B2",
  "about": "“Biofilm treatment” (Oral Health Australia Pty Ltd, priority 2007, dated 2014)",
  "key": {"P. gingivalis W50": {"test_system": "P. gingivalis W50", "assay": "Susceptibility of P. gingivalis to Frd inhibiting agents: growth in liquid culture, OD 620 nm over 50 h", "type": "cell-based, Porphyromonas gingivalis", "description": "(§1) The effect of Frd inhibiting agents on P. gingivalis was carried out in liquid cultures. Briefly W50 was cultured in 200 mL BHI medium until OD of 0.6 (˜2.9×10^8 cfu/mL). The cells were then resuspended in fresh growth medium to a final concentration of 2.5×10^7 cfu/mL. Oxantel pamonate, morantel citrate and thiabendazole (Sigma) were dissolved in DMSO to achieve stock concentrations of 250 mM. 4 μL of the test solution was then mixed with 196 μL of cell suspension and transferred into 96 well flat bottom plates followed by incubation at 37° C. under anaerobic conditions and monitored hourly over a 50 h period by measuring the optical density of the culture at 620 nm using an iEMS microplate reader (Labsystems OY Research Technologies Division). Mean generation times of P. gingivalis in the presence of different inhibiting agents were calculated by […] where Nt and N0 are cells population at time t and time zero, respectively."}, "[1]": {"test_system": "P. gingivalis (ATCC 33277) biofilm", "assay": "Viability of cells dispersed by Oxantel treatment, static 24 well biofilm assay, colony forming units", "type": "cell-based, Porphyromonas gingivalis", "settings": "especially for the 12.5 μM Oxantel treated biofilm, 30 min", "description": "To test the viability of cells dispersed by Oxantel treatment, a static biofilm assay was performed as described above but with slight modifications. Briefly P. gingivalis (ATCC 33277) was allowed to form biofilm in 24 well microplates after 18 h incubation. The free floating planktonic cells were first removed and the biofilm washed once with PBS. 1 mL of 125 uM or 12.5 uM of Oxantel or sterile water […] was added to each well and incubated for 30 min. The number of dispersed P. gingivalis cells that are still viable was determined by cultural analysis on horse blood agar plates after serial dilution in BHI."}, "P. gingivalis ATCC 33277": {"test_system": "P. gingivalis ATCC 33277", "assay": "Effect of Oxantel on growth of P. gingivalis ATCC 33277 in liquid culture over 50 h", "type": "cell-based", "settings": "Porphyromonas gingivalis, ATCC33277; P. gingivalis ATCC 33277, growth over 50 h"}, "[2]": {"test_system": "P. gingivalis ATCC 33277 biofilm", "assay": "Flowcell biofilm culture and CLSM analysis (COMSTAT)", "type": "cell-based, Porphyromonas gingivalis", "from_the_text": "The biofilm culture of P. gingivalis ATCC 33277 in flow cells was similar to that previously described with several modifications. A 3-channel flow cell system (Stovall Life Science, USA) was set up in an anaerobic chamber (MK3 Anaerobic workstation; Don Whitley Scientific Ltd.) and was modified with silicon pump tubing (Gilson, France) and stopcocks for inoculation, testing and staining of the bacterial biofilms. All parts were assembled and 0.5% sodium hypochlorite was pumped into the system and left overnight to sterilise the system. Sterile water (200 mL) was then used to flush the system before growth medium addition. The system was inoculated with 1 mL of an exponentially growing P. gingivalis diluted to 0.1 OD600. The system was incubated for 1 h prior to constant flow (0.2 mL/min) of 5× diluted BHI (Oxoid) supplemented with 0.1 g/L cysteine, 1 mg/L heamin and 1 mg/L vitamin K. […] The flow of medium was resumed for another 10 min to wash off any unbound cells due to testing. BacLight stain (Molecular Probes) was then used to stain the biofilm in situ (see below).\nConfocal laser scanning microscopy (CLSM) of the bacterial biofilms was carried out on a Meta 510 Confocal Microscope with an inverted stage (Zeiss). Horizontal (xy) optodigital sections, each 2 μm thick over the entire thickness of the biofilm (z) were imaged using a 63× objective at 512×512 pixel (0.28 μm per pixel), with each frame at 143.86 μm (x)×143.86 μm (y). To determine reproducibility across the biofilm 5 images at random positions from each of two biological replicates were obtained at wavelengths of 488 nm and 568 nm for each channel. All images obtained were analysed using COMSTAT software. Microcolonies were defined as cluster of cells with >500 pixel counts."}, "[3]": {"test_system": "P. gingivalis ATCC 33277 biofilm", "assay": "Biofilm formation in static 96 well model, crystal violet stain", "type": "cell-based, Porphyromonas gingivalis", "description": "P. gingivalis biofilm formation over 48 h in a static 96 well model was determined as described previously. Briefly P. gingivalis ATCC 33277 cells were resuspended to a final cell density of 2.5×10^7 before mixing with the test substances followed by transferring into 96 well flat bottom plates and incubated anaerobically at 37° C. Assessment of the biofilm mass was carried out at 24 h and 48 h by washing the cells twice with 250 μL of ultra pure water to remove loosely adhered cells followed by drying at 37° C. for 3 h. The dried biofilm was then stained in a solution of 0.1% crystal violet for 15 min and washed 2 times with 250 μL ultra pure water. The crystal violet stain was then dissolved from the biofilm using a solution of 80% ethanol and 20% acetone for 2 min through repeated pipetting before transferring to a new 96 well plate for measurement of the optical density at 620 nm."}, "[4]": {"assay": "Solubility limit seen in the growth assay", "type": "physicochemical", "settings": "growth assay medium (P. gingivalis W50 liquid culture), 37 °C, kinetic from dmso stock, read-out: insolubility (concentration above which insoluble)", "description": "as §1"}, "[5]": {"settings": "Porphyromonas gingivalis, P. gingivalis W50, growth over 50 h, read-out: MIC"}, "[6]": {"settings": "12.5 μM Oxantel vs Control, Biological Replicate 1"}, "[7]": {"settings": "12.5 μM Oxantel, Biological Replicate 1"}, "[8]": {"settings": "12.5 μM Oxantel, Biological Replicate 2, first channel"}, "[9]": {"settings": "12.6 μM Oxantel (so in the source), Biological Replicate 2, second channel"}, "[10]": {"settings": "125 μM Oxantel vs Control, Biological Replicate 1"}, "[11]": {"settings": "125 μM Oxantel, Biological Replicate 1"}, "[12]": {"settings": "Biological Replicate 2, based on average of both replicates over the control sample"}, "[13]": {"settings": "mature biofilm treated with Oxantel (125 μM or 12.5 μM, 30 min) vs control, P<0.01"}},
  "note": "Where two headings read alike, the source gives them in different places. Marks after values point to notes of the source that are not given here.",
  "data": [
    {"smiles": "Cc1ccsc1/C=C/C1=NCCCN1C", "note": "[Morantel]", "values": [
      {"measurement": "MIC", "setting": "P. gingivalis W50; P. gingivalis W50, growth over 50 h, read-out: MIC", "value": 2800, "unit": "µM"},
      {"measurement": "MIC", "setting": "P. gingivalis W50; Porphyromonas gingivalis, W50, 50 h, P. gingivalis W50, growth over 50 h", "value": "~3000", "unit": "µM"}
    ]},
    {"smiles": "CN1CCCN=C1/C=C/c1cccc(O)c1", "note": "[Oxantel]", "values": [
      {"measurement": "concentration with positive inhibition of growth", "setting": "P. gingivalis W50; P. gingivalis W50, from the growth curves", "value": "more than 15 μM"},
      {"measurement": "MIC", "setting": "P. gingivalis W50; [5]", "value": 112, "unit": "µM"},
      {"measurement": "viability of cells released from the biofilm", "setting": "[1]", "value": "remained viable"},
      {"measurement": "MIC", "setting": "P. gingivalis ATCC 33277", "value": 125, "unit": "µM"},
      {"measurement": "Total biomass", "setting": "[2]; 12.5 μM Oxantel added to 16 h biofilm, Biological Replicate 1, COMSTAT, 3-channel flow cell", "value": "1.26^a μm^3/μm^2"},
      {"measurement": "Average microcolony area % reduction", "setting": "[2]; [6]", "value": 37.2, "unit": "%"},
      {"measurement": "Average thickness % reduction", "setting": "[2]; [6]", "value": 39.7, "unit": "%"},
      {"measurement": "Total biomass % reduction", "setting": "[2]; [6]", "value": 30.1, "unit": "%"},
      {"measurement": "Ave microcolonies (by pixel, minimum 500)", "setting": "[2]; [7]", "value": 17.4},
      {"measurement": "Average microcolony area", "setting": "[2]; [7]", "value": "147.65^a μm^2"},
      {"measurement": "Average thickness", "setting": "[2]; [7]", "value": "0.70^a μm"},
      {"measurement": "Surface to biovolume ratio", "setting": "[2]; [7]", "value": "2.04^a μm^2/μm^3"},
      {"measurement": "Ave microcolonies (by pixel, minimum 500)", "setting": "[2]; [8]", "value": 18.4},
      {"measurement": "Average microcolony area", "setting": "[2]; [8]", "value": "119.571^a μm^2"},
      {"measurement": "Average thickness", "setting": "[2]; [8]", "value": "0.911^a μm"},
      {"measurement": "Surface to biovolume ratio", "setting": "[2]; [8]", "value": "2.331^a μm^2/μm^3"},
      {"measurement": "Total biomass", "setting": "[2]; [8]", "value": "1.451^a μm^3/μm^2"},
      {"measurement": "Ave microcolonies (by pixel, minimum 500)", "setting": "[2]; [9]", "value": 19.2},
      {"measurement": "Average microcolony area", "setting": "[2]; [9]", "value": "104.881^a μm^2"},
      {"measurement": "Average thickness", "setting": "[2]; [9]", "value": "0.891^a μm"},
      {"measurement": "Surface to biovolume ratio", "setting": "[2]; [9]", "value": "2.541^a μm^2/μm^3"},
      {"measurement": "Total biomass", "setting": "[2]; [9]", "value": "1.621^a μm^3/μm^2"},
      {"measurement": "Total biomass", "setting": "[2]; 125 μM Oxantel added to 16 h biofilm, Biological Replicate 1", "value": "1.00^a μm^3/μm^2"},
      {"measurement": "Average microcolony area % reduction", "setting": "[2]; [10]", "value": 50.94, "unit": "%"},
      {"measurement": "Average thickness % reduction", "setting": "[2]; [10]", "value": 63.2, "unit": "%"},
      {"measurement": "Total biomass % reduction", "setting": "[2]; [10]", "value": 44.4, "unit": "%"},
      {"measurement": "Ave microcolonies (by pixel, minimum 500)", "setting": "[2]; [11]", "value": 20.8},
      {"measurement": "Average microcolony area", "setting": "[2]; [11]", "value": "115.42^a μm^2"},
      {"measurement": "Average thickness", "setting": "[2]; [11]", "value": "0.43^a μm"},
      {"measurement": "Surface to biovolume ratio", "setting": "[2]; [11]", "value": "2.27^b μm^2/μm^3"},
      {"measurement": "Average microcolony area % reduction", "setting": "[2]; [12]", "value": 37.9, "unit": "%"},
      {"measurement": "Average thickness % reduction", "setting": "[2]; [12]", "value": 49.9, "unit": "%"},
      {"measurement": "Total biomass % reduction", "setting": "[2]; [12]", "value": 42.8, "unit": "%"},
      {"measurement": "number of microcolonies", "setting": "[2]; Oxantel treated vs control samples", "value": "no significant difference"},
      {"measurement": "biofilm depth", "setting": "[2]; [13]", "value": "significant reduction"},
      {"measurement": "size of microcolonies", "setting": "[2]; [13]", "value": "significant reduction"},
      {"measurement": "concentration that significantly reduced the biofilm mass at 24 h", "setting": "[3]; ATCC 33277, 24 h biofilm, subMIC", "value": "≥ 0.1", "unit": "µM"},
      {"measurement": "concentration necessary for an inhibitory effect on the biofilm mass at 48 h", "setting": "[3]; ATCC 33277, 48 h biofilm", "value": "≥ 3.9", "unit": "µM"}
    ]},
    {"smiles": "c1ccc2[nH]c(-c3cscn3)nc2c1", "note": "[Thiabendazole]", "values": [
      {"measurement": "solubility", "setting": "[4]", "value": "> 3000", "unit": "µM"},
      {"measurement": "concentration required for slight inhibitory effects on the growth", "setting": "P. gingivalis W50; P. gingivalis W50, growth over 50 h", "value": "more than 1 mM"},
      {"measurement": "MIC", "setting": "P. gingivalis W50; [5]", "value": "> 3000", "unit": "µM"}
    ]}
  ]
}
